Measured values reported in paper PMC12974487, “Inhibition of FicD-mediated AMPylation and deAMPylation by isoprenoid diphosphates” (Proceedings of the National Academy of Sciences of the …, 2026).
“Also recorded” adds a separate entry of the source.

Key:
[1] = system: Glutathione S-transferase (GST); test: DSF specificity control with GST; type: binding; conditions: same concentrations as measured for FicD
Text: To ensure specificity of binding to the FicD enzyme, we performed DSF with Glutathione S-transferase (GST) and BiP in the presence of the same increasing metabolite concentrations. […] Like FicD, BiP is an ATP/Mg^2+ dependent protein that could potentially leverage the same binding mode as GPP/FPP. […]
across samples. Extremely low or missing values were floored to metabolite-specific limits of detection. For each dialysis replicate, log₂-transformed abundances were computed, and log₂(fold change) was calculated as the difference between protein and metabolite chambers. Injection replicates were averaged prior to fold-change calculation. Dialysis replicates with missing chamber measurements were excluded. Technical replicates were retained for outlier detection. Metabolites dominated by noise were removed based on comparison of a null model (intercept only) versus a protein-specific model and RMSE > 0.5 across dialysis replicates. Remaining metabolites were classified as “protein signal” and retained for analysis. For each metabolite–protein pair, up to one extreme outlier was removed using a z-score cutoff of 4. Dialysis replicates were then averaged to yield a consensus fold-change per protein–metabolite pair. […]

[2] = target: AvrB (Pseudomonas savastanoi pv. glycinea, UniProt P13835); test: Rhamnosylation of GST-Rin4 by AvrB; type: biochemical, Pseudomonas syringae
Procedure: Finally, we explored the inhibitory effects of GPP/FPP on other Fido proteins to see if these metabolites could serve as generic inhibitors of Fido domains. To test this specificity, we performed in vitro activity assays with GPP/FPP and two constitutively active Fido proteins from bacteria: VopS from Vibrio parahaemolyticus ([25]) and AvrB from Pseudomonas syringae ([30]).
(250mM Tris pH 6.8, 10% Sodium dodecyl sulfate, 50% glycerol, 50mM DTT, 0.05% Bromophenol blue) and heated at 98°C for 5 minutes.
Rhamnosylation assays were performed as previously described (2). Briefly, AvrB and GST-Rin4 were combined in the presence of GPP or FPP, where applicable. Reactions were started by the addition of UDP-Rhamnose at a final concentration of […] and reactions were incubated for 1 hour at room temperature. Reactions were stopped by the addition of 5X SDS sample buffer […]
Equal volumes of samples suspended in 5X SDS sample buffer were resolved on hand-cast 10% 1.5mm Tris-Glycine gels with the BioRad Mini-PROTEAN Tetra Cell system. […]
Intact mass analysis of proteins was performed by the UT Southwestern Proteomics Core. Intact protein samples were analyzed by LC/MS, using a Sciex X500B QTOF mass spectrometer operating in positive ion mode, coupled to an Agilent 1290 Infinity II HPLC. […]

AvrB, sequence (P13835 whole entry, the tested form may be a part): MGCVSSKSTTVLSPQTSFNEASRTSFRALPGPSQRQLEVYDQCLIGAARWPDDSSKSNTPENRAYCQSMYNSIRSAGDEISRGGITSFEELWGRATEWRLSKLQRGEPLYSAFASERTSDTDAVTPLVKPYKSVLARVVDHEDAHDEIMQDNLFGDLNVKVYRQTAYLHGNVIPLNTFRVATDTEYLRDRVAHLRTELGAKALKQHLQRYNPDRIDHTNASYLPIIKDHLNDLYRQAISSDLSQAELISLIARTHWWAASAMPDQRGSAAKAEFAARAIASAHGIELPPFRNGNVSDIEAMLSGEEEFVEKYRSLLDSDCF

SMILES	change in GST melt curves or Tm [1]	effect on rhamnosylation activity of AvrB [2]
CC(C)=CCC/C(C)=C/CC/C(C)=C/COP(=O)(O)OP(=O)(O)O [FPP, farnesyl-pyrophosphate]	Neither GPP nor FPP elicited a change	Neither GPP nor FPP affected; also recorded: not inhibited
CC(C)=CCC/C(C)=C/COP(=O)(O)OP(=O)(O)O [GPP, geranyl-pyrophosphate]	Neither GPP nor FPP elicited a change	Neither GPP nor FPP affected
